# From US8889874B2, “Imidazolone-chalcone derivatives as potential anticancer agent and process for the preparation thereof” (Council of Scientific and Industrial Research, priority 2010, dated 2014)
# Like-named read-outs stand apart in the source and are kept apart here.
# Key:
# Type in all cases: cell-based, human
# [1] = tested on: Leukemia cancer cell lines; assay: NCI anticancer screen, SRB assay, panel summary; details: Homo sapiens
# Outline: (§1)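 Sulforhodamine B protein assay read cell growth after 48 h of continuous compound exposure. Dose-response curves per cell line used at least five 10-fold-diluted concentrations, within a panel of fifty-three human lines from nine tumour types.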
# Colon cancer cell lines = assay: NCI anticancer screen, SRB assay, panel summary; details: for GI50: Homo sapiens
# Outline: as §1
# [2] = tested on: Ovarian cancer cell lines; assay: NCI anticancer screen, SRB assay, panel summary; details: Homo sapiens
# Outline: as §1
# Renal cancer cell lines = assay: NCI anticancer screen, SRB assay, panel summary; details: Homo sapiens
# Outline: as §1
# [3] = tested on: Melanoma cancer cell lines; assay: NCI anticancer screen, SRB assay, panel summary; details: for GI50: Homo sapiens
# Outline: as §1
# [4] = tested on: Prostate cancer cell lines; assay: NCI anticancer screen, SRB assay, panel summary
# Outline: as §1
# Breast cancer cell lines = assay: NCI anticancer screen, SRB assay, panel summary; details: Homo sapiens
# Outline: as §1
# [5] = tested on: Non-small cell lung cancer cell lines; assay: NCI anticancer screen, SRB assay, panel summary; details: Homo sapiens
# Outline: as §1
# CNS cancer cell lines = assay: NCI anticancer screen, SRB assay, panel summary; details: for GI50: Homo sapiens
# Outline: as §1
# RXF 393 (renal) = assay: NCI anticancer screen, SRB assay, 48 h; details: Homo sapiens
# Outline: as §1
# SK-MEL-28 (melanoma) = assay: NCI anticancer screen, SRB assay, 48 h; details: Homo sapiens
# Outline: as §1
# OVCAR-3 (ovarian) = assay: NCI anticancer screen, SRB assay, 48 h; details: Homo sapiens
# Outline: as §1
# SK-OV-3 (ovarian) = assay: NCI anticancer screen, SRB assay, 48 h; details: Homo sapiens
# Outline: as §1
# HCT-116 (colon) = assay: NCI anticancer screen, SRB assay, 48 h; details: Homo sapiens
# Outline: as §1
# BT-549 (breast) = assay: NCI anticancer screen, SRB assay, 48 h; details: Homo sapiens
# Outline: as §1
# SF-539 (CNS) = assay: NCI anticancer screen, SRB assay, 48 h; details: Homo sapiens
# Outline: as §1
# SW-620 (colon) = assay: NCI anticancer screen, SRB assay, 48 h; details: Homo sapiens
# Outline: as §1
# SF-268 (CNS) = assay: NCI anticancer screen, SRB assay, 48 h; details: Homo sapiens
# Outline: as §1
# SK-MEL-2 (melanoma) = assay: NCI anticancer screen, SRB assay, 48 h; details: Homo sapiens
# Outline: as §1
# UO-31 (renal) = assay: NCI anticancer screen, SRB assay, 48 h; details: Homo sapiens
# Outline: as §1
# UACC-62 (melanoma) = assay: NCI anticancer screen, SRB assay, 48 h; details: Homo sapiens
# Outline: as §1
# SF-295 (CNS) = assay: NCI anticancer screen, SRB assay, 48 h; details: Homo sapiens
# Outline: as §1
# M14 (melanoma) = assay: NCI anticancer screen, SRB assay, 48 h; details: Homo sapiens
# Outline: as §1
# [6] = tested on: NCI-H522 (non-small cell lung); assay: NCI anticancer screen, SRB assay, 48 h; details: Homo sapiens
# Outline: as §1
# TD-47D (breast) = assay: NCI anticancer screen, SRB assay, 48 h; details: Homo sapiens
# Outline: as §1
# [7] = tested on: NCI-H460 (non-small cell lung); assay: NCI anticancer screen, SRB assay, 48 h; details: Homo sapiens
# Outline: as §1
# [8] = 48 h exposure, SRB, read-out: GI50
# [9] = read-out: pGI50 (-log of molar concentration causing 50% inhibition of net cell growth) (converted)
compound,measurement,setting,value
"COc1cc(/C=C/C(=O)c2cccc(-n3cc(-c4ccc(Cl)cc4)[nH]c3=O)c2)ccc1O [3f, 4-(4-chlorophenyl)-1-3-[(E)-3-(4-hydroxy-3-methoxyphenyl)-2-propenoyl]phenyl-2,3-dihydro-1H-2-imidazolone]",GI50,"[1]; Leukemia panel, log of concentration in mol/L causing 50% inhibition of net cell growth, read-out: mean graph midpoint (MG_MID) of Log10 GI50 (converted)",1.38 µM
same,LC50,"[1]; Leukemia panel, log of concentration leading to 50% net cell death, read-out: mean graph midpoint (MG_MID) of Log10 LC50 (converted)",55 µM
same,GI50,"[1]; two leukemia cancer cell lines (RPMI-8226 and K-562), exposure at least 48 hrs, read-out: GI50, range over the panel",1.33 to 1.42 µM
same,mean graph midpoint (MG_MID) of Log10 LC50,"Colon cancer cell lines; Colon panel, log of concentration leading to 50% net cell death",4.53
same,GI50,"Colon cancer cell lines; Colon panel, log of concentration in mol/L causing 50% inhibition of net cell growth, read-out: mean graph midpoint (MG_MID) of Log10 GI50 (converted)",2.04 µM
same,GI50,"Colon cancer cell lines; seven colon cancer cell lines, exposure at least 48 hrs, read-out: GI50, range over the panel",1.46 to 3.4 µM
same,GI50,"[2]; Ovarian panel, log of concentration in mol/L causing 50% inhibition of net cell growth, read-out: mean graph midpoint (MG_MID) of Log10 GI50 (converted)",2.75 µM
same,LC50,"[2]; Ovarian panel, log of concentration leading to 50% net cell death, read-out: mean graph midpoint (MG_MID) of Log10 LC50 (converted)",43.7 µM
same,GI50,"[2]; six ovarian cancer cell lines, exposure at least 48 hrs, read-out: GI50, range over the panel",1.56 to 4.64 µM
same,GI50,"Renal cancer cell lines; Renal panel, log of concentration in mol/L causing 50% inhibition of net cell growth, read-out: mean graph midpoint (MG_MID) of Log10 GI50 (converted)",2.95 µM
same,LC50,"Renal cancer cell lines; Renal panel, log of concentration leading to 50% net cell death, read-out: mean graph midpoint (MG_MID) of Log10 LC50 (converted)",63.1 µM
same,GI50,"Renal cancer cell lines; eight renal cancer cell lines, exposure at least 48 hrs, read-out: GI50, range over the panel",1.67 to 6.4 µM
same,GI50,"[3]; Melanoma panel, log of concentration in mol/L causing 50% inhibition of net cell growth, read-out: mean graph midpoint (MG_MID) of Log10 GI50 (converted)",2.82 µM
same,GI50,"[3]; nine melanoma cancer cell lines, exposure at least 48 hrs, read-out: GI50, range over the panel",1.63 to 8.69 µM
same,mean graph midpoint (MG_MID) of Log10 LC50,"[3]; Melanoma panel, log of concentration leading to 50% net cell death",4.32
same,GI50,"[4]; Homo sapiens, log of concentration in mol/L causing 50% inhibition of net cell growth, read-out: mean graph midpoint (MG_MID) of Log10 GI50 (converted)",1.95 µM
same,LC50,"[4]; Homo sapiens, log of concentration leading to 50% net cell death, read-out: mean graph midpoint (MG_MID) of Log10 LC50 (converted)",66.1 µM
same,mean graph midpoint (MG_MID) of Log10 TGI,[4]; log of concentration resulting in total inhibition of net cell growth,5.20
same,GI50,"Breast cancer cell lines; Breast panel, log of concentration in mol/L causing 50% inhibition of net cell growth, read-out: mean graph midpoint (MG_MID) of Log10 GI50 (converted)",3.24 µM
same,LC50,"Breast cancer cell lines; Breast panel, log of concentration leading to 50% net cell death, read-out: mean graph midpoint (MG_MID) of Log10 LC50 (converted)",95.5 µM
same,GI50,"Breast cancer cell lines; five breast cancer cell lines, exposure at least 48 hrs, read-out: GI50, range over the panel",2.3 to 4.67 µM
same,GI50,"[5]; Non-small cell lung panel, log of concentration in mol/L causing 50% inhibition of net cell growth, read-out: mean graph midpoint (MG_MID) of Log10 GI50 (converted)",3.55 µM
same,LC50,"[5]; Non-small cell lung panel, log of concentration leading to 50% net cell death, read-out: mean graph midpoint (MG_MID) of Log10 LC50 (converted)",85.1 µM
same,GI50,"[5]; nine non-small cell lung cancer cell lines, exposure at least 48 hrs, read-out: GI50, range over the panel",1.26 to 9.61 µM
same,mean graph midpoint (MG_MID) of Log10 LC50,"CNS cancer cell lines; CNS panel, log of concentration leading to 50% net cell death",4.29
same,GI50,"CNS cancer cell lines; CNS panel, log of concentration in mol/L causing 50% inhibition of net cell growth, read-out: mean graph midpoint (MG_MID) of Log10 GI50 (converted)",3.16 µM
same,GI50,"CNS cancer cell lines; six CNS cancer cell lines, exposure at least 48 hrs, read-out: GI50, range over the panel",1.78 to 10.5 µM
same,GI50,"RXF 393 (renal); RXF 393, 48 h exposure, SRB, read-out: GI50",6.4 µM
same,GI50,"RXF 393 (renal); RXF-393, read-out: pGI50 (-log of molar concentration causing 50% inhibition of net cell growth) (converted)",6.46 µM
same,GI50,SK-MEL-28 (melanoma); [8],2.06 µM
same,GI50,SK-MEL-28 (melanoma); [9],2.04 µM
same,GI50,OVCAR-3 (ovarian); [8],1.56 µM
same,GI50,OVCAR-3 (ovarian); [9],1.55 µM
same,GI50,SK-OV-3 (ovarian); [8],3.19 µM
same,GI50,SK-OV-3 (ovarian); [9],3.16 µM
same,GI50,HCT-116 (colon); [8],1.46 µM
same,GI50,HCT-116 (colon); [9],1.45 µM
same,GI50,BT-549 (breast); [8],2.52 µM
same,GI50,BT-549 (breast); [9],2.51 µM
same,GI50,SF-539 (CNS); [8],1.78 µM
same,GI50,SF-539 (CNS); [9],1.78 µM
same,GI50,SW-620 (colon); [8],2 µM
same,GI50,SW-620 (colon); [9],2 µM
same,GI50,SF-268 (CNS); [8],2.5 µM
same,GI50,SF-268 (CNS); [9],2.51 µM
same,GI50,SK-MEL-2 (melanoma); [8],3.66 µM
same,GI50,SK-MEL-2 (melanoma); [9],3.63 µM
same,GI50,UO-31 (renal); [8],1.67 µM
same,GI50,UO-31 (renal); [9],1.66 µM
same,GI50,UACC-62 (melanoma); [8],2.74 µM
same,GI50,UACC-62 (melanoma); [9],2.75 µM
same,GI50,SF-295 (CNS); [8],10.5 µM
same,GI50,SF-295 (CNS); [9],10.5 µM
same,GI50,M14 (melanoma); [8],2.86 µM
same,GI50,M14 (melanoma); [9],2.88 µM
same,GI50,[6]; [8],2.36 µM
same,GI50,[6]; [9],2.34 µM
same,GI50,TD-47D (breast); [8],3.09 µM
same,GI50,TD-47D (breast); [9],3.09 µM
same,GI50,[7]; [8],3.9 µM
same,GI50,[7]; [9],3.89 µM
